Test results: PMC11732138, “Gold complex compounds that inhibit drug-resistant Staphylococcus aureus by targeting thioredoxin reductase” (Frontiers in Antibiotics, 2023)
Values after ≈ are worked out from the molar mass of the structure shown. Where two headings read alike, the source gives them in different places. Blank lines part the entries; values can stand above or below the compound they belong to.

Key:
S. aureus TrxR = S. aureus TrxR (Staphylococcus aureus, UniProt P66011); assay: TrxR (TrxB) enzymatic assay, DTNB to TNB conversion; conditions: for TrxR enzymatic inhibitory activity (in words): DTNB to TNB conversion
Description: TrxR specific inhibitory activity was evaluated using 40 μL of S. aureus TrxR enzyme (0.5 μg/μL) per 200 mL of the reaction mixture for 15 minutes, comparing auranofin to other sulfur-containing compounds (all tested at 10 μg/mL), including known anti-S. aureus compounds.
For the screening assay, diluted TrxR assay buffer (Cayman Chemical, Ann Arbor, MI) (100 μL) was mixed with the investigational compounds (20 μL) in a 96 well-plate format and combined with Sa-TrxB (40 μL; 0.5 μg/mL), DTNB (20 μL) and NADPH (20 μL). The reaction entailed combining NADPH and Sa-TrxB with DTNB, which was converted to TNB, producing a yellow color.

P. aeruginosa PA14 = assay: Broth microdilution MIC, P. aeruginosa; assay type: cell-based, Pseudomonas aeruginosa; conditions: Pseudomonas aeruginosa; P. aeruginosa PA14; read-out: MIC
Description: (§1) In vitro antibiotic susceptibilities were determined using the broth microdilution assay established by the Clinical and Laboratory Standards Institute ([Clinical and Laboratory Standards Institute, 2012]). Broth microdilution assays were carried out with 2 biological replicates, each in triplicate, Mueller–Hinton broth (MHB; BD Biosciences, Franklin Lakes, NJ, USA) with a total assay volume of 100 μL in 96-well plates (BD Biosciences, Franklin Lakes, NJ, USA). Two-fold serial dilutions of compounds were prepared at a range of 0.01– 64 μg/mL in 50 μL of MHB. The initial bacterial inoculum was adjusted to OD600 0.06, 50 μL was, added to the test compounds, and then incubated at 35°C for 18 h. Post incubation, OD600 was measured using a Vmax microplate reader (Molecular Devices, San Jose, CA), and the lowest concentration of test compound that suppressed bacterial growth was reported as the MIC. Broth culture from the MIC assay (10 μL) was plated on Mueller–Hinton agar (BD Biosciences, Franklin Lakes, NJ, USA), and colony-forming units (CFUs) were enumerated after overnight incubation at 37°C.

E. faecium ATCC E007 = assay: Broth microdilution MIC, E. faecium; assay type: cell-based, Enterococcus faecium; conditions: Enterococcus faecium, ATCCE007; E. faecium ATCC E007; read-out: MIC
Description: as §1

S. aureus MW2 [1] = assay: Broth microdilution MIC, S. aureus MW2; assay type: cell-based, Staphylococcus aureus; conditions: for MIC: S. aureus MW2 (MRSA), broth microdilution, 18 h
Description: as §1

A. baumannii 17978 = assay: Broth microdilution MIC, A. baumannii; assay type: cell-based, Acinetobacter baumannii; conditions: Acinetobacter baumannii; A. baumannii 17978; read-out: MIC
Description: as §1

K. pneumoniae ATCC 77326 = assay: Broth microdilution MIC, K. pneumoniae; assay type: cell-based, Klebsiella pneumonia; conditions: Klebsiella pneumoniae, ATCC77326; K. pneumoniae ATCC 77326; read-out: MIC
Description: as §1

Enterobacter (EAE 2625) = assay: Broth microdilution MIC, Enterobacter; assay type: cell-based, Enterobacter spp.; conditions: Enterobacter (EAE 2625); read-out: MIC
Description: as §1

[2] = tested on: clinical isolates of S. aureus; assay: MIC against clinical isolates of S. aureus; assay type: cell-based; conditions: Staphylococcus aureus, read-out: MIC
Description: Broth microdilution assays were carried out with 2 biological replicates, each in triplicate, Mueller–Hinton broth (MHB; BD Biosciences, Franklin Lakes, NJ, USA) with a total assay volume of 100 μL in 96-well plates (BD Biosciences, Franklin Lakes, NJ, USA). […] The initial bacterial inoculum was adjusted to OD600 0.06, 50 μL was, added to the test compounds, and then incubated at 35°C for 18 h. Post incubation, OD600 was measured using a Vmax microplate reader (Molecular Devices, San Jose, CA), and the lowest concentration of test compound that suppressed bacterial growth was reported as the MIC.
Isolates were tested as 2 biological replicates.

[3] = Compound solubility in PBS; assay type: physicochemical; conditions: aqueous buffer, kinetic from dmso stock; PBS, 2 Hour; highest concentration with no detectable precipitate; read-out: Solubility Limit
Description: Compound solubility in PBS. Compound solubility was measured in PBS. Briefly, serial dilutions of test compounds were prepared in DMSO at 100x the final concentration. Test compound solutions were diluted 100-fold into PBS in a 96-well plate and mixed. After 2 h, the presence of precipitate was detected by measuring absorbance at 540 nm.

[4] = tested on: intracellular free thiols of S. aureus MW2; assay: Thiol depletion assay; assay type: cell-based, Staphylococcus aureus; conditions: treated vs untreated cell lysate
Description: S. aureus MW2 was treated for 15 min with the indicated (0.125, 0.25, 0.5, or 0.75 µg/mL) concentrations of auranofin, AU1, AU5, or ampicillin. After treatment bacteria were washed twice in PBS and then resuspended in 100 mM potassium phosphate, monobasic, pH 7.4, containing 1 mM ethylenediaminetetraacetic acid to promote lysis. Cells were incubated in the lysis solution for 30 min at 60°C and then vortexed briefly. The solution was centrifuged at 13,000 g for 10 min to collect cell debris. Lysate was collected and 50 μL was transferred to a 96-well plate. Thiols were quantified using the Fluorometric Thiol assay kit following the manufacturer’s instructions (Millipore Sigma, St. Louis, MO, USA). The fluorescence intensity was measured after a 30 min incubation time at λex = 490/λem = 535 nm using a Vmax plate reader.

S. aureus MW2 [5] = assay: Diamide assay (CFU reduction); assay type: cell-based, Staphylococcus aureus; conditions: 3 h
Description: An overnight culture of S. aureus MW2 was inoculated in tryptic soy broth (TSB) media and grown with agitation. The cells were centrifuged, washed with PBS, and diluted to an OD600 0.4 (10^8 CFU/mL) in PBS. The cells were then treated with auranofin (0.5 µg/mL), AU1 (0.5 µg/mL), AU5 (0.5 µg/mL), and diamide (5 mM and 10 mM) alone or in combinations for 3 h at 37°C. The cells were then serially diluted and plated on tryptic soy agar (TSA) media and incubated at 37°C for 24 h. Colonies that grew on plates were enumerated to determine the effect of the drug and diamide on S. aureus.

- OD420 in TrxR enzymatic assay (S. aureus TrxR; subscreen, after a 30 min incubation period, DMSO 0.483 ± 0.121): 0.1094
- MIC (P. aeruginosa PA14): > 64 µg/mL
- MIC (E. faecium ATCC E007): 32 µg/mL (≈ 128 µM)
- MIC (S. aureus MW2 [1]; Staphylococcus aureus, read-out: MIC): 4 µg/mL (≈ 16 µM)
- MIC (A. baumannii 17978): 64 µg/mL (≈ 257 µM)
- MIC (K. pneumoniae ATCC 77326): > 64 µg/mL
- MIC (Enterobacter (EAE 2625)): > 64 µg/mL
Compound: CC(C)(C)c1ccc(S(=O)(=O)/C=C/C#N)cc1 [Bay11-7085]

Compound: CC(C)(C)c1ccc(S)cc1 [C1, 4-tert-butylbenzenethiol]
- MIC (S. aureus MW2 [1]): > 128 µg/mL

Compound: CC(C)(C)c1ccc(S(=O)O)cc1 [C2, 4-tert-butylbenzenesulfinic acid]
- MIC (S. aureus MW2 [1]): > 128 µg/mL

Compound: CCP(=O)(CC)CC [C3, triethylphosphine oxide]
- MIC (S. aureus MW2 [1]): > 128 µg/mL

Compound: O=P(c1ccccc1)(c1ccccc1)c1ccccc1 [C4, Triphenylphosphine oxide]
- MIC (S. aureus MW2 [1]): > 128 µg/mL

Compound: CC(C)(C)c1ccc(S(=O)(=O)/C=C/C(N)=O)cc1 [D22]
- TrxR enzymatic inhibitory activity (in words) (S. aureus TrxR): demonstrated inhibitory activity but required higher concentrations than AU1, AU5, or auranofin
- anti-S. aureus activity (in words) (S. aureus MW2 [1]): not effective S. aureus inhibitors

- TrxR enzymatic inhibitory activity (in words) (S. aureus TrxR): did not inhibit
Compound: COC(=O)/C=C/S(=O)(=O)c1ccc(C(C)(C)C)cc1 [D25]
- anti-S. aureus activity (in words) (S. aureus MW2 [1]): not effective S. aureus inhibitors

Compound: CC(C)(C)c1ccc(S(=O)(=O)/C=C/CO)cc1 [D26]
- TrxR enzymatic inhibitory activity (in words) (S. aureus TrxR): demonstrated inhibitory activity but required higher concentrations than AU1, AU5, or auranofin
- anti-S. aureus activity (in words) (S. aureus MW2 [1]): not effective S. aureus inhibitors

Compound: Cc1onc(-c2ccccc2)c1C(=O)N[C@@H]1C(=O)N2[C@@H]1SC(C)(C)[C@@H]2C(=O)O [Oxacillin]
- MIC ([2]; isolate BFSA12): 0.5 µg/mL (≈ 1.25 µM)
- MIC ([2]; isolate BFSA13): 1 µg/mL (≈ 2.49 µM)
- MIC ([2]; isolate BFSA15): 0.25 µg/mL (≈ 0.623 µM)
- MIC ([2]; isolate BFSA16): 0.25 µg/mL (≈ 0.623 µM)
- MIC ([2]; isolate BFSA17): 0.125 µg/mL (≈ 0.311 µM)
- MIC ([2]; isolate BFSA18): 0.5 µg/mL (≈ 1.25 µM)
- MIC ([2]; isolate BFSA19): 0.5 µg/mL (≈ 1.25 µM)
- MIC ([2]; isolate BFSA20): 0.5 µg/mL (≈ 1.25 µM)
- MIC ([2]; isolate BFSA21): 0.5 µg/mL (≈ 1.25 µM)
- MIC ([2]; isolate BFSA22): 1 µg/mL (≈ 2.49 µM)
- MIC ([2]; isolate BFSA24): 0.5 µg/mL (≈ 1.25 µM)
- MIC ([2]; isolate BFSA26): 0.25 µg/mL (≈ 0.623 µM)
- MIC ([2]; isolate BFSA29): > 8 µg/mL
- MIC ([2]; isolate BFSA30): > 8 µg/mL
- MIC ([2]; isolate BFSA31): > 8 µg/mL
- MIC ([2]; isolate BFSA32): > 8 µg/mL
- MIC ([2]; isolate BFSA33): > 8 µg/mL
- MIC ([2]; isolate BFSA34): > 8 µg/mL
- MIC ([2]; isolate BFSA35): > 8 µg/mL
- MIC ([2]; isolate BFSA36): > 8 µg/mL
- MIC ([2]; isolate BFSA37): 0.25 µg/mL (≈ 0.623 µM)
- MIC ([2]; isolate BFSA38): 0.25 µg/mL (≈ 0.623 µM)
- MIC ([2]; isolate BFSA39): 0.25 µg/mL (≈ 0.623 µM)
- MIC ([2]; isolate BFSA148): > 8 µg/mL
- MIC ([2]; isolate BFSA149): > 8 µg/mL
- MIC ([2]; isolate BFSA150): > 8 µg/mL
- MIC ([2]; isolate BFSA151): > 8 µg/mL
- MIC ([2]; isolate BFSA152): > 8 µg/mL
- MIC ([2]; isolate BFSA153): > 8 µg/mL
- MIC ([2]; isolate BFSA155): > 8 µg/mL

Compound: COC(=O)[C@H]1[C@H]2C[C@@H]3c4[nH]c5cc(OC)ccc5c4CCN3C[C@H]2C[C@@H](OC(=O)c2cc(OC)c(OC)c(OC)c2)[C@@H]1OC [Reserpine]
- solubility at 2 h [3]: 7.81 µM (≈ 4.75 µg/mL)

Compound: CC1(C)S[C@@H]2[C@H](NC(=O)[C@H](N)c3ccccc3)C(=O)N2[C@H]1C(=O)O [ampicillin]
- impact on free thiols (in words) [4]: no impact

Compound: CN(C)C(=O)/N=N/C(=O)N(C)C [diamide]
- log CFU reduction (S. aureus MW2 [5]; diamide alone 5 mM): 1.5 log CFU
- log CFU reduction (S. aureus MW2 [5]; diamide alone 10 mM): up to 2.6 log CFU
